# Measurements reported in patent publication US20130296425A1, “PROPHYLACTIC OR THERAPEUTIC AGENT FOR A PERIPHERAL NERVE DISORDER INDUCED BY ANTI-CANCER AGENTS” (NAGOYA INDUSTRIAL SCIENCE RESEARCH INSTITUTE, priority 2011, published 2013).
# Tested on: paclitaxel-induced peripheral nerve disorder rats
# Experiment: Oral administration (suspension or α-CD inclusion complex), hyperalgesia by paclitaxel (von Frey test)
# Assay type: in vivo, rat
# Details: for 50% reaction threshold value, after 5 hours from administration / AUC of 50% reaction threshold value over time, measured value: single dose; for 50% reaction threshold value, before administration: baseline
# Description: A suspension ([…]) 5 mL of the compound 4 was mixed with a 1% α-CD aqueous solution followed by stirring overnight to prepare an α-CD inclusion complex of the compound 4.
# With regard to male SD rats of six weeks age used as the experimental animals, the rats were organized into the following six groups each comprising 6 rats. • Oral administration group with 0.3 mg/kg of the test drug suspension • Oral administration group with 3 mg/kg of the test drug suspension • Oral administration group with an α-CD inclusion complex containing 0.3 mg/kg of the test drug • Oral administration group with an α-CD inclusion complex containing 3 mg/kg of the test drug • α-CD oral administration group • Intraperitoneal administration group with 0.3 mg/kg of the test drug
# Paclitaxel-induced peripheral nerve disorder rats were prepared in the same manner as in the above 1.[1](2). The compound 4 was used as a test drug and, after 39 days from the initiation of the administration of paclitaxel, it was orally administered in a single dose where the dose calculated as a test drug became 0.3 mg/kg or 3 mg/kg to oral administration groups with the test drug suspension or to oral administration groups with an α-CD inclusion complex containing the test drug while, to an intraperitoneal administration group with the test drug, it was intraperitoneally administered in a single dose of 0.3 mg/kg. Further, to an α-CD Oral administration group, an α-CD solution was orally administered in a single dose of 15 mg/kg.
# A von Frey test was conducted in the same manner as in the above 1.[1](4) using the rats mentioned in the above (2) and 50% reaction threshold values in each group were measured before initiating the administration of a test drug and after 1, 5 and 24 hours. Further, AUC (area of the part surrounded by a curve and an abscissa axis (a time axis) in a graph showing the 50% reaction threshold value over time from administration of the test drug) was calculated and the relative ratio of each group was calculated where the AUC of the intraperitoneal administration group with 0.3 mg/kg of the test drug was adopted as 100.
# [1] = oral 0.3 mg/kg, test drug suspension
# [2] = oral 3 mg/kg, test drug suspension
smiles,measurement,setting,value
"CCCCCCC/C=C/C(=O)OCC [Compound 4, Trans-2-decenoic acid ethyl ester]","50% reaction threshold value, after 5 hours from administration",intraperitoneal 0.3 mg/kg,8.57
same,"AUC of 50% reaction threshold value over time, measured value",intraperitoneal 0.3 mg/kg,74.59
same,"50% reaction threshold value, before administration",intraperitoneal 0.3 mg/kg,4.58
same,AUC relative ratio,"intraperitoneal 0.3 mg/kg, this group adopted as 100",100
same,"50% reaction threshold value, after 5 hours from administration",[1],6.00
same,"AUC of 50% reaction threshold value over time, measured value",[1],31.83
same,AUC relative ratio,"oral 0.3 mg/kg, test drug suspension, AUC of i.p. 0.3 mg/kg group = 100",43
same,"50% reaction threshold value, before administration",[1],4.57
same,"50% reaction threshold value, after 5 hours from administration",[2],8.66
same,"AUC of 50% reaction threshold value over time, measured value",[2],54.99
same,AUC relative ratio,"oral 3 mg/kg, test drug suspension, AUC of i.p. 0.3 mg/kg group = 100",74
same,"50% reaction threshold value, before administration",[2],4.57
